Test [1] addresses T1, NPSR1-A (Homo sapiens, UniProt Q6W5P4, N107I).
T1 construct: expressed in transfected cells; host or cells: HEK-293, transient transfection with pCMV-NPSR1-A
T1 sequence (Q6W5P4 1-371 N107I): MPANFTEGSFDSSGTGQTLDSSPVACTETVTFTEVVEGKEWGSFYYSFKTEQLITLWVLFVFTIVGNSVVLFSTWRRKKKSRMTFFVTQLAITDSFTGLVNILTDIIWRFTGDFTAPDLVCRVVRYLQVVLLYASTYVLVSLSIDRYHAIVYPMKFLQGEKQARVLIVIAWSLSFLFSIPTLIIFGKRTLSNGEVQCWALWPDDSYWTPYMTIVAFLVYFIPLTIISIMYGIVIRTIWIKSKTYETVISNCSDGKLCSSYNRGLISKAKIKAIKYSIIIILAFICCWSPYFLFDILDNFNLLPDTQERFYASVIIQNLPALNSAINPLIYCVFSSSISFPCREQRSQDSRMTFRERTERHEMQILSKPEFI
Briefly: NPS concentration-response, mRNA expression by qRT-PCR, HEK-293 NPSR1-A. The settings on record: 0.001-10 μM NPS, 6 h, Hill fit, mean ± SEM. The class given is cell-based. The protocol:
(§1) Human embryonic kidney cells (HEK-293) were cultured in MEM+GlutaMAX-1 medium (Gibco/Invitrogen) supplemented with 10% fetal calf serum (FCS) (Biosera), 1% sodium pyruvate, 1% non-essential amino acids and 1% penicillin/streptomycin (Gibco/Invitrogen). Human epithelial lung carcinoma cells (A549) were cultured in F-12/D-MEM medium (1:1; Gibco/Invitrogen) supplemented with 10% FCS, L-glutamine and 1% penicillin/streptomycin. Human neuroblastoma cells (SH-SY5Y) were cultured in MEM + GlutaMAX-1 medium supplemented with 10% FCS and 1% penicillin/streptomycin. All cells were kept at 37°C in a humified 5% CO2 incubator. The cells were transiently transfected (Lipofectamin™2000 Reagent, Invitrogen, Carlsbad, USA) with equal amounts of pCMV-NPSR1-A,- NPSR1-B (construction of the expression vectors has been described earlier) or an empty pCMV vector control in a ratio of 1:2 (DNA:Lipofectamin). 24 h post transfection cells were stimulated with NPS ([…]) (Sigma-Genosys LTD, Haverhill, UK or New England Peptide™, Gardner, MA, USA).
(§2) Total cellular RNA was isolated with the RNAeasy Mini Kit (Qiagen, Hilden, Germany) and reverse transcription was done using the iScript™ cDNA synthesis kit (Bio-Rad Laboratories, Hercules, CA, USA) or SuperScript™ First-Strand Synthesis System (Invitrogen, Carlsbad, USA) according to the manufacturer's protocol. All experiments were performed in biological duplicates or triplicates. qRT-PCR was performed using Fast SYBR® Green technology with hypoxanthine-guanine phosphoribosyl transferase (HPRT) or glyceraldehyde-3-phosphate dehydrogenase (GAPDH) as endogenous controls. Gene-specific primers were designed using Primer3 software (for complete lists of all primer sequences please see Additional file 1, Table S1). The PCR assays were performed in a total volume of 10 μl, containing 2 ul cDNA template, 5 ul Fast SYBR® Green PCR Master Mix (Applied Biosystems, Foster City, CA, USA) and 100 nM of each primer. A 7500 Fast Real-Time PCR system (Applied Biosystems) was used according to manufacturer's instructions. A dissociation stage was added to confirm primer specificity. All assays were carried out in technical duplicates or triplicates. Relative quantification and calculation of the range of confidence was performed with the comparative ΔΔCT method. Results are shown as relative expression compared to NPS stimulated empty vector control cells with error bars illustrating the standard error of the mean (SEM). The levels of total NPSR1 mRNA and isoform specific NPSR1-A and NPSR1-B mRNA were measured with qRT-PCR to control for equal isoform expression levels prior to any experiment on all transiently transfected cells (representative data shown Figure 2b).
(§3) To refine concentration and time dependency transiently NPSR1-A, -B or empty pCMV vector overexpressing cells were treated either with 0.001, 0.01, 0.1, 1 or 10 μM NPS for 6 h (concentration-response) or with 2 μM NPS for 30 min, 1, 2, 4, 6, 12, 24 or 48 h (time-response). To verify the results in other cell types, A549 and SH-SY5Y transiently overexpressing NPSR1-A, -B or an empty pCMV vector were treated with 2 μM NPS for 6 h. mRNA expression was measured with qRT-PCR. Agonist concentration-effect curve data were fitted to the Hill equation using an iterative, least squares method (GraphPad Prism, San Diego, CA, U.S.A), to provide estimate EC50 (the agonist concentration that induces half-maximum effect) and presented as -log10 (pEC50) which is normally distributed.
In general terms: Quantitative PCR measures a nucleic acid by following its amplification.

For test [2], the target named is T1, NPSR1-A. Briefly: cAMP accumulation (EIA), HEK-293 NPSR1-A. The class given is cell-based. The settings on record: 0.001-10 μM NPS, 20 min, 200 μM 3-isobutyl-1-methylxanthine 40 min before, six replicas, mean ± SEM. As to the method:
(§4) Human embryonic kidney cells (HEK-293) were cultured in MEM+GlutaMAX-1 medium (Gibco/Invitrogen) supplemented with 10% fetal calf serum (FCS) (Biosera), 1% sodium pyruvate, 1% non-essential amino acids and 1% penicillin/streptomycin (Gibco/Invitrogen). Human epithelial lung carcinoma cells (A549) were cultured in F-12/D-MEM medium (1:1; Gibco/Invitrogen) supplemented with 10% FCS, L-glutamine and 1% penicillin/streptomycin. Human neuroblastoma cells (SH-SY5Y) were cultured in MEM + GlutaMAX-1 medium supplemented with 10% FCS and 1% penicillin/streptomycin. All cells were kept at 37°C in a humified 5% CO2 incubator. The cells were transiently transfected (Lipofectamin™2000 Reagent, Invitrogen, Carlsbad, USA) with equal amounts of pCMV-NPSR1-A,- NPSR1-B (construction of the expression vectors has been described earlier) or an empty pCMV vector control in a ratio of 1:2 (DNA:Lipofectamin). […]
(§5) To assay cAMP accumulation, transiently NPSR1-A or -B overexpressing HEK-293 cells were 24 h after transfection incubated for 40 min with 200 μM 3-isobutyl-1-methylxanthine (Sigma-Aldrich, St. Louis, MO, USA), a nonspecific inhibitor of phosphodiesterases. […] The fluorescence intensity was measured before and after injection of 1 μM NPS using the Fluostar Optima microplate reader (BMG Labtechnologies, Offenburg, Germany).

The target in test [3] is T2, NPSR1-B (Homo sapiens, UniProt Q6W5P4, N107I).
T2 construct: expressed in transfected cells; host or cells: HEK-293, transient transfection with pCMV-NPSR1-B
T2 sequence (Q6W5P4 1-377 isoform Q6W5P4-4 N107I): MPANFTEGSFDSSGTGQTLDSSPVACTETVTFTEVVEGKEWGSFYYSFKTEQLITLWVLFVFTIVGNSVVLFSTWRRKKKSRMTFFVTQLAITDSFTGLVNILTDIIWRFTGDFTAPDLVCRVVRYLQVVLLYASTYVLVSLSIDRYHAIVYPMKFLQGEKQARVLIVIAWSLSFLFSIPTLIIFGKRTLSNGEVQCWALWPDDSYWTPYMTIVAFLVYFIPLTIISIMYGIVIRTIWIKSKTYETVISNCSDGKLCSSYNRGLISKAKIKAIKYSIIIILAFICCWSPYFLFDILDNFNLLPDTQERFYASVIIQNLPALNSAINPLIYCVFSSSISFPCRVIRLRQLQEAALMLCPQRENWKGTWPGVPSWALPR
The test can be described thus: cAMP accumulation (EIA), HEK-293 NPSR1-B. The class given is cell-based. The conditions noted are these: 0.001-10 μM NPS, 20 min, 200 μM 3-isobutyl-1-methylxanthine 40 min before, six replicas, mean ± SEM. As to the method:
as §4, §5

For test [4], the target named is T2, NPSR1-B. The test can be described thus: NPS concentration-response, mRNA expression by qRT-PCR, HEK-293 NPSR1-B. The class given is cell-based. The settings on record: 0.001-10 μM NPS, 6 h, Hill fit, mean ± SEM. The protocol:
as §1, §2, §3

A further test concerns monocytic cell lines. The conditions noted are these: pro-inflammatory stimuli, ref [10]; cited from earlier work. The source says: The increasing number of positive association studies supports the concept that NPSR1 is mechanistically involved in asthma and allergy, and also in other diseases. It is therefore highly important to understand its functions in more detail. […] Furthermore, we have observed that out ...

The mark [5] stands for this setting: read-out: pEC50, AREG mRNA (converted).
The mark [6] stands for this setting: read-out: pEC50, CGA mRNA (converted).
Where [7] appears, read: read-out: pEC50, NR4A2 mRNA (converted).
[8] abbreviates: read-out: pEC50, PCK1 mRNA (converted).

No end group written: not given here.

These results are taken from publication PMC3142248, “The asthma candidate gene NPSR1 mediates isoform specific downstream signalling” (BMC Pulmonary Medicine, 2011).

Consider “SFRNGVGTGMKKTSFQRAKS [NPS, neuropeptide S]”, for which the EC50 on NPSR1-A [1] (setting [5]) was 234 nM; at NPSR1-A [1] (setting [6]), 45.7 nM; on NPSR1-A [1] (read-out: pEC50, EGR1 mRNA (converted)), 72.4 nM; at NPSR1-A [1] (read-out: pEC50, FOS mRNA (converted)), 53.7 nM; at NPSR1-A [1] (read-out: pEC50, IL8 mRNA (converted)), 44.7 nM; at NPSR1-A [1] (setting [7]) it was 7.94 nM. Moreover, the EC50 is 87.1 nM at NPSR1-A [1] (read-out: pEC50, NTS mRNA (converted)); 162 nM on NPSR1-A [1] (setting [8]); 4.47 nM on NPSR1-A [2]; 3.89 nM at NPSR1-B [3]; 170 nM on NPSR1-B [4] (setting [5]); 100 nM at NPSR1-B [4] (read-out: pEC50, CCL20 mRNA (converted)). In addition, the EC50 on NPSR1-B [4] (setting [6]) is 100 nM; on NPSR1-B [4] (setting [7]), 83.2 nM; at NPSR1-B [4] (setting [8]) it was 89.1 nM; at NPSR1-B [4] (read-out: pEC50, SERPINB2 mRNA (converted)), 126 nM.
Consider TNFα, for which the “NPSR1 mRNA levels” value in the test on monocytic cell lines is recorded as “generated elevated NPSR1 mRNA levels”.

B1: IFNγ: pro-inflammatory stimulus (protein, UniProt P01579 24-161, looked up)
Interferon gamma: QDPYVKEAENLKKYFNAGHSDVADNGTLFLGILKNWKEESDRKIMQSQIVSFYFKLFKNFKDDQSIQKSVETIKEDMNVKFFNSNKKKRDDFEKLTNYSVTDLNVQRKAIHELIQVMAELSPAAKTGKRKRSQMLFRG
Consider B1, for which, in the test on monocytic cell lines, the “NPSR1 mRNA levels” value is “generated elevated NPSR1 mRNA levels”.
